Several values for one entry are separate records, joined by “and”; a condition that tells them apart may be missing. Equal values may be shown once.
What was measured:
[1] = target: human α7-AChR (Homo sapiens, UniProt P36544); assay: cell-based; assay type: binding; settings: for IC50: Unlabeled-ligand half-competition concentration
[2] = target: Human–C. elegans α7-AChR–β-GluCl ECD–TMD chimera (UniProt P36544+Q17328); assay: cell-based; assay type: binding
[3] = target: Chicken–C. elegans α7-AChR–β-GluCl ECD–TMD chimera (UniProt P22770+Q17328); assay: cell-based; assay type: binding
[4] = target: T1, Human–C. elegans α7-AChR–β-GluCl chimera S56T + S172T (Homo sapiens, UniProt P36544, S172T/S56T)
[5] = target: T1, Human–C. elegans α7-AChR–β-GluCl chimera S56T + S172T; assay: biochemical; settings: Unlabeled-ligand half-competition concentration

T1 sequence (Q17328 245-434): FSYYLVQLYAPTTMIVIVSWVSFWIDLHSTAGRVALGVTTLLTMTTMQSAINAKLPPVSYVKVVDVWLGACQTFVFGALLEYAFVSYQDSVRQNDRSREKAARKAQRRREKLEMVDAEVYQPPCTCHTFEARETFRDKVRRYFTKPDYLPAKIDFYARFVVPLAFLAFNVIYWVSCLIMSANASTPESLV
T1 sequence (P36544 23-230 S56T/S172T): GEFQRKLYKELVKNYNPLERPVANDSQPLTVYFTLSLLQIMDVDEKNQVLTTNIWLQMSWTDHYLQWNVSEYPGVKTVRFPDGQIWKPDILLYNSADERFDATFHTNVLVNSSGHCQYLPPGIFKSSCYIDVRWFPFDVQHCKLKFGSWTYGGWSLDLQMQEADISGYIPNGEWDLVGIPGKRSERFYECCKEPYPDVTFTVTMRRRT
Human–C. elegans α7-AChR–β-GluCl ECD–TMD chimera, sequence (P36544 whole entry, looked up, change not shown, the tested form may be a part): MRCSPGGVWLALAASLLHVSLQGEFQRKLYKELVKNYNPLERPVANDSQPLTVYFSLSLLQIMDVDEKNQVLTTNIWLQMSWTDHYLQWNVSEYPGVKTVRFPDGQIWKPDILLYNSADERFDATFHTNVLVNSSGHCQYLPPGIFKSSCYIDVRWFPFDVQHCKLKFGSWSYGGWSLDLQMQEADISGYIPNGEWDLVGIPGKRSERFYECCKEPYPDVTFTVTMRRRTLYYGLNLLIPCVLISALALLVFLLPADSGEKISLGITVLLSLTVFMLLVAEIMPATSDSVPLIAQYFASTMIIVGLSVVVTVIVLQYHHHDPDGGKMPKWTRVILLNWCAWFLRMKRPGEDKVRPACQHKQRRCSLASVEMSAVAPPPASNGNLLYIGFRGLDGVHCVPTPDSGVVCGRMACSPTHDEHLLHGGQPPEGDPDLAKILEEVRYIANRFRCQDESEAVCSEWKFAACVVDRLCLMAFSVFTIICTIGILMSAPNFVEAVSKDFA
Human–C. elegans α7-AChR–β-GluCl ECD–TMD chimera, sequence (Q17328 whole entry, looked up, change not shown, the tested form may be a part): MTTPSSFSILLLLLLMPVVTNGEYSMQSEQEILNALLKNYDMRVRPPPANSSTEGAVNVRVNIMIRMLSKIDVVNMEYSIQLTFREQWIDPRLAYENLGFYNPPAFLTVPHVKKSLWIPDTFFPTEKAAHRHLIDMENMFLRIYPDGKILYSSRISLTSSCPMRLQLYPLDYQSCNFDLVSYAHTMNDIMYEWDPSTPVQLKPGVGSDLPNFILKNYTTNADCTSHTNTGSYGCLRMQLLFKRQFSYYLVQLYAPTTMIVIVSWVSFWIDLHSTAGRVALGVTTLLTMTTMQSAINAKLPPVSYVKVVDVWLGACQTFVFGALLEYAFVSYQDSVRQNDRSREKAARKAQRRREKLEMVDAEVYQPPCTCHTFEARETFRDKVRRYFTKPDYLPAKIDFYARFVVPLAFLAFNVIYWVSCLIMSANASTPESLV
human α7-AChR, sequence (P36544 23-502): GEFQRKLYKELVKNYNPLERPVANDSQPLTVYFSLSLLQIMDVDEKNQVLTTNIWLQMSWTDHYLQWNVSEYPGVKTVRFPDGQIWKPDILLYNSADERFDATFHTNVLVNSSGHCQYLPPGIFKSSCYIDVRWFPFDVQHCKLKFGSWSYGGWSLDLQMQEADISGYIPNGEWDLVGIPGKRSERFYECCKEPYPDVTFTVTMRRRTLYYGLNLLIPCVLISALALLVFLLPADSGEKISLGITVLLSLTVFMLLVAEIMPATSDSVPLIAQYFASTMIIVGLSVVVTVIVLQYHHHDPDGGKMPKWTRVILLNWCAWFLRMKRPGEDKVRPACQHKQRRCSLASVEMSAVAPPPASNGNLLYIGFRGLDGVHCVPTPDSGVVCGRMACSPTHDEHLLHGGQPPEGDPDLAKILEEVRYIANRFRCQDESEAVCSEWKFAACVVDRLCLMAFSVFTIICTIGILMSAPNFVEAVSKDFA
Chicken–C. elegans α7-AChR–β-GluCl ECD–TMD chimera, sequence (P22770 whole entry, looked up, stated change not applied, the tested form may be a part): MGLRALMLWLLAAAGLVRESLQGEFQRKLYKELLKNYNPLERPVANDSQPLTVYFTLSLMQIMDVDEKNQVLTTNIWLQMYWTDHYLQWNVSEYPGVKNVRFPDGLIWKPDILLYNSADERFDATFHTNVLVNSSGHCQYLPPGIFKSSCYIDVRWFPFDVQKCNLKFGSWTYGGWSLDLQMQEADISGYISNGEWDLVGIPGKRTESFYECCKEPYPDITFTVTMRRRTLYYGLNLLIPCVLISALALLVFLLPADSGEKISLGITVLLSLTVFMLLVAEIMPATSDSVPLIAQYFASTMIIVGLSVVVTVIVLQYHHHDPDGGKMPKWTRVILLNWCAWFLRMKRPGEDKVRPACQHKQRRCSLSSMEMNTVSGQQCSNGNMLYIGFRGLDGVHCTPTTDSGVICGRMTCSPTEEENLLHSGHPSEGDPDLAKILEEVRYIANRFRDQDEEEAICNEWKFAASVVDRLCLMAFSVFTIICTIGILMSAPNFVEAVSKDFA
Chicken–C. elegans α7-AChR–β-GluCl ECD–TMD chimera, sequence (Q17328 whole entry, looked up, stated change not applied, the tested form may be a part): as the sequence (Q17328 whole entry, looked up, change not shown, the tested form may be a part) above

Compound	Unlabeled-ligand nH (Hill coefficient, competition) [1]	IC50 [1] [µM]	Hill coefficient, individual curve fitted separately [1]	Unlabeled-ligand nH (Hill coefficient, competition) [2]	IC50 [3] [nM]	Unlabeled-ligand nH (Hill coefficient, competition) [3]	IC50 ([2]; Unlabeled-ligand half-competition concentration)	difference between closed-state affinities of the chicken and human α7-AChR ECDs [3] [fold]	Unlabeled-ligand nH (Hill coefficient, competition) [4]	IC50 [5]
C[N+](C)(C)CCO [Choline, choline]	1.28 ± 0.08	204 ± 16								
CN1CCC[C@H]1c1cccnc1 [Nicotine, nicotine]	1.41 ± 0.06		1.50 ± 0.001 and 1.28 ± 0.001 and 1.42 ± 0.13	1.08 ± 0.06	3680 ± 110	1.80 ± 0.07				
CCN1C[C@]2(COC(=O)c3ccccc3N3C(=O)C[C@H](C)C3=O)CC[C@H](OC)[C@@]34[C@@H]5C[C@H]6[C@H](OC)[C@@H]5[C@](O)(C[C@@H]6OC)[C@@](O)([C@@H](OC)[C@H]23)[C@@H]14 [MLA, methyllycaconitine]	0.95 ± 0.05	0.0889 ± 0.00854		1.01 ± 0.05	4.9 ± 0.52	0.990 ± 0.07	68 nM and 68.3 nM	~14	1.04 ± 0.08	32 nM and 32.5 nM

Source: article PMC9136306 (The Journal of General Physiology, 2022)
